Patent US20130252247A1, “KIT FOR SCREENING FOR SKIN-ACTIVATING SUBSTANCES AND COMPRISING THE KLOTHO GENE, AND METHOD FOR SCREENING FOR SKIN-ACTIVATING SUBSTANCES USING THE SAME” (Amorepacific Corporation, priority 2011, published 2013)

Test system: Klotho
Experiment: Klotho expression in keratinocytes treated with retinoic acid and retinol, quantitative real-time PCR
Assay type: cell-based, human
Method: In order to examine whether Klotho protein is expressed in skin cells, primers of SEQ ID NOS: 1 and 2, which can amplify Klotho gene (NCBI accession No. NM-004795), were constructed. Then, RT-PCR was performed using the primer set and a probe of SEQ ID NO: 3 (TaqMan™ fluorogenic probe) in order to detect Klotho mRNA in the cDNA of keratinocytes (NHK), fibroblasts (NHF), NHM-promoblack (Normal Human Epidermal Melanocytes (NHEM) juvenile foreskin, Promocell: melanocytes derived from dark-skinned persons), NHM-DP (NHM-dark pigment, Invitrogen: melanocytes derived from dark-skinned persons) and NHM-MP (NHM-moderate pigment, Invitrogen: melanocytes derived from Asian). The PCR reaction was performed for 35 cycles, each consisting of denaturation at 94° C. for 30 sec, annealing at 55° C. for 30 sec, and extension at 72° C. for 60 sec. As a positive control, the cDNA of human embryonic kidney cells (HEK293) known to express Klotho gene was used.
In order to examine the effects of retinoic acid and retinol (known as anti-aging substances) on the expression of Klotho in keratinocytes, quantitative real time PCR was performed under the same conditions as described in Test Example 1, and the expression levels of Klotho protein were examined at 2 days and 8 days after treatment of the cells with each of 0.1 μM and 1 μM of retinoic acid and 1 μM and 10 μM of retinol.

CC1=C(/C=C/C(C)=C/C=C/C(C)=C/CO)C(C)(C)CCC1 [retinol]
expression level of Klotho protein (keratinocytes, 8 days after treatment, 0.1 μM and 1 μM retinoic acid, 1 μM and 10 μM retinol, FIG. 3): significantly increased
expression of Klotho protein (summary statement, found using the kit): increased
